Assays:
S. cerevisiae PNY0569 = assay: Glucose utilization rate under non-growing conditions in buffer; format: cell-based, Saccharomyces cerevisiae; settings: PNY0569, 20 g/L isobutanol
Procedure: (§1) Isobutanol production may or may not be coupled to growth. Therefore we measured the glucose consumption rates under non-growing conditions using three different pH buffers.
(§2) Glucose consumption rates were determined in phosphate buffer pH 6.5 as outlined by Diderich, J. A., et al., Microbiology, 1999, 145 p. 3447-54. We also determined the glucose consumption rates at pH 5.25 and pH 4.0 using MES buffer.
(§3) Cells were grown overnight at 30° C. in YPD (125 ml in a 500 ml flask). Cells were centrifuged and resuspended in buffer (0.1M phosphate buffer pH 6.0 or 0.1M MES buffer pH 5.25 or 0.1M MES buffer pH 4.0), washed one time, and then resuspended such that each cell suspension had approximately 16 OD or 160 million cell/ml. 10 ml of these stock cells were transferred to flasks containing 10 ml of the corresponding buffer containing 40 g/L glucose and varying concentrations of isobutanol. At various times samples (500 to 700 ul) were transferred to a tube containing an equal volume of 10% TCA. Samples were centrifuged and glucose determined in the YSI glucose analyzer. Glucose consumption rates were determined by plotting the amount of glucose consumed over time.

S. cerevisiae PNY0602 = assay: as above; format: cell-based, Saccharomyces cerevisiae; settings: PNY0602, 20 g/L isobutanol
Procedure: as §1, §2, §3

S. cerevisiae PNY0614 = assay: as above; format: cell-based, Saccharomyces cerevisiae; settings: PNY0614, 20 g/L isobutanol
Procedure: as §1, §2, §3

[1] = tested on: Saccharomyces cerevisiae BY4743; assay: Glucose utilization rate in high cell density culture in YPD; format: cell-based
Procedure: Saccharomyces cerevisiae BY4743 was plated from a freezer vial onto YPD agar (Teknova, Hollister, Calif.; Cat. #Y1000) and incubated overnight at 30° C. Cells from the YPD plate were inoculated into a 25 ml pre-culture of YPD broth (Teknova, Hollister, Calif.; Cat. #Y5000) with an initial OD600 of 0.06 to 0.08, and this culture was grown for 7 hours in an air shaker at 30° C. An aliquot of the pre-culture was inoculated into 200 ml of YPD broth with an initial OD600 of 0.06 to 0.08, and this culture was incubated with aeration at 30° C. for approximately 17 hours. The optical density of the culture was determined, the culture was centrifuged and the cells were resuspended in fresh YPD broth to yield an OD600 of 8. […] Time of addition of cells was referred to as 0 hours. At various times, samples (1.5 ml) were withdrawn and centrifuged at 10,000 rpm for 2 minutes in a microfuge (Sorvall Biofuge pico). […] YSI, Inc., Yellow Springs, Ohio). Glucose consumption rates in the presence of isobutanol were also determined when the cell concentration was 18 gdcw/L or 24 gdcw/L. Cells from the YPD plate were inoculated into a 25 ml pre-culture of YPD broth (Teknova, Hollister, Calif. Cat. #Y5000) with an initial OD600 of 0.06 to 0.08, and this culture was grown for 7 hours in an air shaker at 30° C. […] The optical density of the culture was determined, the culture was centrifuged and the cells were resuspended in fresh YPD broth to yield an OD600 of 38 (18 gdcw/L). […] The experiment was repeated except that the starting OD600 was 49.1 (24 gdcw/L). […] The results for BY4743 are graphed in FIG. 4.

[2] = tested on: Saccharomyces cerevisiae BY4743; assay: Growth (OD600) of yeast in varying isobutanol concentrations; format: cell-based
Procedure: Saccharomyces cerevisiae BY4743 was plated from a freezer vial onto YPD agar (Teknova, Hollister, Calif.; Cat. #Y1000) and incubated overnight at 30° C. Cells from the YPD plate were inoculated into a 25 ml pre-culture of YPD broth (Teknova, Hollister, Calif.; Cat. #Y5000) with an initial OD600 of 0.06 to 0.08. The pre-culture was grown for 7 hours in an aerobic shaker at 30° C. An aliquot of the pre-culture was inoculated into 125 ml of YPD broth, with an initial OD600 of 0.06 to 0.08, and this culture was incubated with aeration at 30° C. for approximately 17 hours.
A starter culture of 150 ml of YPD was inoculated with 5 ml of the overnight culture with an initial OD600 of 0.15. This culture was incubated at 30° C. with aeration for two hours, reaching OD600 of 0.38. At this time (time=0) the cultures were challenged with varying concentrations of isobutanol as given in Table 4 and the OD600 was assayed every hour for 5 h and at 24 h.

[3] = 1.5% isobutanol, 3.8 and 24 gdcw/L cultures

Structure (SMILES): CC(C)CO [Isobutanol, isobutanol]
- Glucose Utilization (g/gdcw/h) (S. cerevisiae PNY0569; pH 4, non-growing): 0.7 g/gdcw/h
- Glucose Utilization (g/gdcw/h) (S. cerevisiae PNY0569; pH 5.25, non-growing): 0.8 g/gdcw/h
- Glucose Utilization (g/gdcw/h) (S. cerevisiae PNY0569; pH 6.5, non-growing): 0.6 g/gdcw/h
- Glucose Utilization (g/gdcw/h) (S. cerevisiae PNY0602; pH 4, non-growing): 0.9 g/gdcw/h
- Glucose Utilization (g/gdcw/h) (S. cerevisiae PNY0602; pH 5.25, non-growing): 1.1 g/gdcw/h
- Glucose Utilization (g/gdcw/h) (S. cerevisiae PNY0602; pH 6.5, non-growing): 0.7 g/gdcw/h
- Glucose Utilization (g/gdcw/h) (S. cerevisiae PNY0614; pH 4, non-growing): 0.9 g/gdcw/h
- Glucose Utilization (g/gdcw/h) (S. cerevisiae PNY0614; pH 5.25, non-growing): 1.1 g/gdcw/h
- Glucose Utilization (g/gdcw/h) (S. cerevisiae PNY0614; pH 6.5, non-growing): 0.7 g/gdcw/h
- calculated rate of glucose utilization ([1]; 1% isobutanol, high cell density cultures): at least 1.4 gram per gdcw per hour
- glucose consumption rate [1, 3]: about 1.1 g/gdcw/h
- glucose consumption rate, % of the control rate [1, 3]: approximately 50%
- rate of glucose utilization ([1]; 1.5% isobutanol, 3.8 gdcw/L and 24 gdcw/L cultures): at least 1 gram per gdcw per hour
- rate of glucose utilization ([1]; 2% isobutanol, high cell density cultures): at least 0.5 gram per gdcw per hour
- rate of glucose utilization ([1]; 2.5% isobutanol, high cell density cultures): at least 0.4 gram per gdcw per hour
- rate of glucose utilization ([1]; 3% isobutanol, high cell density cultures): at least 0.2 gram per gdcw per hour
- Growth (OD 600) ([2]; 0.5% isobutanol, 1 hour): 0.55 OD 600
- Growth (OD 600) ([2]; 0.5% isobutanol, 2 hours): 0.74 OD 600
- Growth (OD 600) ([2]; 0.5% isobutanol, 3 hours): 1.12 OD 600
- Growth (OD 600) ([2]; 0.5% isobutanol, 4 hours): 1.69 OD 600
- Growth (OD 600) ([2]; 0.5% isobutanol, 5 hours): 2.22 OD 600
- Growth (OD 600) ([2]; 0.5% isobutanol, 24 hours): 5.19 OD 600
- Growth (OD 600) ([2]; 0.5% isobutanol, time 0 hours): 0.38 OD 600
- Growth (OD 600) ([2]; 0.75% isobutanol, 1 hour): 0.54 OD 600
- Growth (OD 600) ([2]; 0.75% isobutanol, 2 hours): 0.68 OD 600
- Growth (OD 600) ([2]; 0.75% isobutanol, 3 hours): 1.00 OD 600
- Growth (OD 600) ([2]; 0.75% isobutanol, 4 hours): 1.36 OD 600
- Growth (OD 600) ([2]; 0.75% isobutanol, 5 hours): 1.80 OD 600
- Growth (OD 600) ([2]; 0.75% isobutanol, 24 hours): 4.97 OD 600
- Growth (OD 600) ([2]; 0.75% isobutanol, time 0 hours): 0.38 OD 600
- Growth (OD 600) ([2]; 1% isobutanol, 1 hour): 0.51 OD 600
- Growth (OD 600) ([2]; 1% isobutanol, 2 hours): 0.62 OD 600
- Growth (OD 600) ([2]; 1% isobutanol, 3 hours): 0.82 OD 600
- Growth (OD 600) ([2]; 1% isobutanol, 4 hours): 0.96 OD 600
- Growth (OD 600) ([2]; 1% isobutanol, 5 hours): 1.16 OD 600
- Growth (OD 600) ([2]; 1% isobutanol, 24 hours): 4.41 OD 600
- cell concentration reached ([2]; 1% isobutanol, after overnight growth, one OD600 = 10^7 cells/ml): about 4×10^7 cells/ml
- Growth (OD 600) ([2]; 1% isobutanol, time 0 hours): 0.38 OD 600
- Growth (OD 600) ([2]; 1.5% isobutanol, 1 hour): 0.46 OD 600
- Growth (OD 600) ([2]; 1.5% isobutanol, 2 hours): 0.50 OD 600
- Growth (OD 600) ([2]; 1.5% isobutanol, 3 hours): 0.53 OD 600
- Growth (OD 600) ([2]; 1.5% isobutanol, 4 hours): 0.61 OD 600
- Growth (OD 600) ([2]; 1.5% isobutanol, 5 hours): 0.65 OD 600
- Growth (OD 600) ([2]; 1.5% isobutanol, 24 hours): 1.41 OD 600
- Growth (OD 600) ([2]; 1.5% isobutanol, time 0 hours): 0.38 OD 600
- Growth (OD 600) ([2]; 2% isobutanol, 1 hour): 0.43 OD 600
- Growth (OD 600) ([2]; 2% isobutanol, 2 hours): 0.46 OD 600
- Growth (OD 600) ([2]; 2% isobutanol, 3 hours): 0.47 OD 600
- Growth (OD 600) ([2]; 2% isobutanol, 4 hours): 0.49 OD 600
- Growth (OD 600) ([2]; 2% isobutanol, 5 hours): 0.50 OD 600
- Growth (OD 600) ([2]; 2% isobutanol, 24 hours): 0.90 OD 600
- Growth (OD 600) ([2]; 2% isobutanol, time 0 hours): 0.38 OD 600
- Growth (OD 600) ([2]; 2.5% isobutanol, 1 hour): 0.42 OD 600
- Growth (OD 600) ([2]; 2.5% isobutanol, 2 hours): 0.42 OD 600
- Growth (OD 600) ([2]; 2.5% isobutanol, 3 hours): 0.42 OD 600
- Growth (OD 600) ([2]; 2.5% isobutanol, 4 hours): 0.45 OD 600
- Growth (OD 600) ([2]; 2.5% isobutanol, 5 hours): 0.45 OD 600
- Growth (OD 600) ([2]; 2.5% isobutanol, 24 hours): 0.52 OD 600
- Growth (OD 600) ([2]; 2.5% isobutanol, time 0 hours): 0.38 OD 600

Source: US20120149080A1, “YEAST PRODUCTION CULTURE FOR THE PRODUCTION OF BUTANOL” (Butamax(TM) Advanced Biofuels LLC, priority 2010, published 2012)
